# According to patent US20100168146A1, “Composition Comprising (R)-Spiro[L-Azabicyclo[2.2.2]Octane-3,2'(3'H)-Furo[2,3-B]Pyridine (AZD0328) and its Use in the Treatment of Alzheimer's Disease, ADHD or Cognitive Dysfunction” (priority 2008, published 2010):
# Where “and” joins values, the source holds several entries; their conditions need not be identical. Equal values may be shown once. Entries after “also recorded” stand apart in the source; their conditions may differ. Read-outs that look alike come from different tables or passages of the source.
# How the values were obtained:
# [1] = PK/TK multiple dose studies; format: in vivo; settings: rabbit 2F, DMB15, subcutaneous 1.15 mg/kg (3 μmol/kg), day 18
# Description: (§1) This section provides a summary of the pharmacokinetic and metabolism properties of AZD0328 derived from in vivo studies. […] The derived PK/TK parameters from these studies are presented in Table 4 for single dose studies (DMR4, 0619LR, 20030191PCR, DM016, DMB10, DMW12, 50190, 0190DD and 03.330/1), and are presented in Table 5 multiple dose PK/TK studies (DMR4, 0612AR, DMB15, 50190, 0190DD and 0295AD).
# rats [2] = experiment: 1 month repeated-dose oral toxicity; format: in vivo; settings: rat, one month, high dose 65 mg/kg/day (300 μmol/kg/day)
# Description: The objective of this investigation was to study the toxicity of AZD0328 given orally to rats for 1 month. Four groups of rats, each consisting of 10 males and 10 females, were given 0, 2.2, 15 and 65 mg/kg/day ([…]) of AZD0328.
# dogs = experiment: Cardiovascular telemetry / ECG; format: in vivo; settings: dog
# Description: The cardiovascular effects of orally administered AZD0328 were assessed dogs implanted with telemetry transmitters (Table 3). The main purpose of the study was to evaluate effects on the QT interval of the ECG during a 7-days dosing period followed by 5 days of recovery, thus enabling assessment of any accumulation of effects and the recovery back to baseline. Systolic, diastolic and mean arterial blood pressure, heart rate, lead II ECG and core body temperature were recorded continuously. The PR, QRS and QT intervals of the ECG were measured, and the QT interval was corrected for changes in heart rate using the method of Van de Water (QTcV).
# [3] = biological target: α7 receptor binding sites (Rattus norvegicus, UniProt Q05941); format: in vivo; settings: sc, 2-4 h
# Chain of α7 receptor binding sites (Q05941 23-502): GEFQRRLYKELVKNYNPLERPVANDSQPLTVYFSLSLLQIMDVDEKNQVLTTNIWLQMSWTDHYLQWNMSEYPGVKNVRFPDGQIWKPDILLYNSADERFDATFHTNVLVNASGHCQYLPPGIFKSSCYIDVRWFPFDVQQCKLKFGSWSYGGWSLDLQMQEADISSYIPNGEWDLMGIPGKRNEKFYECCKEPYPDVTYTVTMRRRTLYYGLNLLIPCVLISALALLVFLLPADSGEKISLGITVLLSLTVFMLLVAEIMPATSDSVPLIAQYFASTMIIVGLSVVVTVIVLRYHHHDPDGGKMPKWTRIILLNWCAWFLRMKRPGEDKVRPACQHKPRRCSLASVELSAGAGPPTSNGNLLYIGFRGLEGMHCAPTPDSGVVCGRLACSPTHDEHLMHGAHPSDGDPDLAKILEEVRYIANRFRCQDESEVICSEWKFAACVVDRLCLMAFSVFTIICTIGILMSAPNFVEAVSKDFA
# FFX rats = experiment: Hippocampal LTP in vivo in FFX rats; design: species or system rat; settings: 0.3 mg/kg
# Description: AZD0328 reversed a deficit in hippocampal long-term potentiation (LTP) in FFX Sprague Dawley rats (Table 2). […] 0.3 mg/kg of AZD0328 was ineffective in this test.
# rats [4] = experiment: Nicotine drug discrimination; settings: Wistar, rat, in vivo, sc
# Description: AZD0328 was tested for its potential to produce nicotine-like stimulus effects after subcutaneous administration in a drug-discrimination procedure (Table 3).
# 5-HT3A/B receptors = biological target: T1, 5-HT3A/B receptors (Homo sapiens, UniProt O95264+P46098); experiment: Functional potency at recombinant human receptors in vitro; format: cell-based
# T1 construct: expressed in transfected cells
# T1 sequence (P46098 24-478): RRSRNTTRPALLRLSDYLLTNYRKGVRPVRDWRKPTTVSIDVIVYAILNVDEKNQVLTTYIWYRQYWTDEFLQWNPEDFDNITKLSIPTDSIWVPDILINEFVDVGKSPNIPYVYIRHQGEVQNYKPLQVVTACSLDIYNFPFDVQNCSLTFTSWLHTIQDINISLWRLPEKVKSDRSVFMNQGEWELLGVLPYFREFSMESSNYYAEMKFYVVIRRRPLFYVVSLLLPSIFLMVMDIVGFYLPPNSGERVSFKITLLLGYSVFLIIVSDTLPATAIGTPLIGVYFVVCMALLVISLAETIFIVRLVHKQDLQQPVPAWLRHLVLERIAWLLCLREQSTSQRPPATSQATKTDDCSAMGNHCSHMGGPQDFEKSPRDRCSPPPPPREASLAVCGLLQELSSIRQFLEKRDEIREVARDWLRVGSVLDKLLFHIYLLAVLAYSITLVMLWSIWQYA
# T1 sequence (O95264 22-441): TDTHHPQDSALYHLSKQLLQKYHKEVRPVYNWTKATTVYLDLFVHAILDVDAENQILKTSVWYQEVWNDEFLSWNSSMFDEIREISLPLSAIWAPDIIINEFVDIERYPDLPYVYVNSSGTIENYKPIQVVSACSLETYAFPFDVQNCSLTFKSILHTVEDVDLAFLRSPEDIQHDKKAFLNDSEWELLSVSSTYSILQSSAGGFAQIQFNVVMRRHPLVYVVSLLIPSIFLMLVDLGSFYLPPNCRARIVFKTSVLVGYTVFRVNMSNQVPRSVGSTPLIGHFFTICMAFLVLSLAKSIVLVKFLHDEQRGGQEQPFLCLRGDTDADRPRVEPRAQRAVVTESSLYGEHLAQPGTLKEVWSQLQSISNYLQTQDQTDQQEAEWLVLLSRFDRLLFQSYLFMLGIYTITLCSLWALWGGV
# Pgp transporter = Pgp transporter (Homo sapiens, UniProt P08183); experiment: Digoxin transport, cell-based assay; format: in vitro ADME
# Chain of Pgp transporter (P08183 whole entry): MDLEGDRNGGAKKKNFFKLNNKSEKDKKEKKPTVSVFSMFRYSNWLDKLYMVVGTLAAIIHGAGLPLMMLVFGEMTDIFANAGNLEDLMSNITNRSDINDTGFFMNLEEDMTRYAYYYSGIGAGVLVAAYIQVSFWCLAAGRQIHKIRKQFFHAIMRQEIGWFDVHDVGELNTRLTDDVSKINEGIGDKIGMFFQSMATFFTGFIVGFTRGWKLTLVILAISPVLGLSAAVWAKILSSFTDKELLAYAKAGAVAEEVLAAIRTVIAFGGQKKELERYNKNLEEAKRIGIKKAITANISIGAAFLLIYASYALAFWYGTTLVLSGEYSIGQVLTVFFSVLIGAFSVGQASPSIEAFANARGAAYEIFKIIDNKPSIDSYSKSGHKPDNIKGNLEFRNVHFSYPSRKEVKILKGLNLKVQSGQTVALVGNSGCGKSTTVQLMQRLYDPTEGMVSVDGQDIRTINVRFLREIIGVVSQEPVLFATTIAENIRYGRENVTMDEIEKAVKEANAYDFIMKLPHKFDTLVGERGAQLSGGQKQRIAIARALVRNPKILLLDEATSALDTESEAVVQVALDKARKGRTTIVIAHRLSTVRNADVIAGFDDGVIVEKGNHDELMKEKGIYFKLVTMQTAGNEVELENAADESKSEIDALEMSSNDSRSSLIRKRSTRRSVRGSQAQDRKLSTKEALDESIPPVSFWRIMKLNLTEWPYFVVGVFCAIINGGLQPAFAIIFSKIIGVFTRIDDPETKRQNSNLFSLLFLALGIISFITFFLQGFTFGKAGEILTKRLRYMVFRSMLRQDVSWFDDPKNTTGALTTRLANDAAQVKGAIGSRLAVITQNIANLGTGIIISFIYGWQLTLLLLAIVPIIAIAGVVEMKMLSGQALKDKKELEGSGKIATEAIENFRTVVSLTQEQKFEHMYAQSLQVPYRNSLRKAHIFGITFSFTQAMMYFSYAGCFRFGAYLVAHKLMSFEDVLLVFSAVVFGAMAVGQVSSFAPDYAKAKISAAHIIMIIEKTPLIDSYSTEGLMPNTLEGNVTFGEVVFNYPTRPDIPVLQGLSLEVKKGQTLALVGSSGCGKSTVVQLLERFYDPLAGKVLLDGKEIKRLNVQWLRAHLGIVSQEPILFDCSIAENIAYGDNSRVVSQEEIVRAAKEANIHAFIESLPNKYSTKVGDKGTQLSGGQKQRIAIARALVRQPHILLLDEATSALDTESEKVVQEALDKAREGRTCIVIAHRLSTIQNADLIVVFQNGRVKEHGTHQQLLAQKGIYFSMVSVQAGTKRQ
# Description: The 50% bioavailability of AZD0328 in human was conservatively selected based on the observations from rat, dog and monkey.
# rhesus monkeys = experiment: Intravenous self-administration (reinforcing potential)
# Description: The compound was compared with cocaine and saline for its ability to maintain intravenous self-administration in the monkeys under a lever-press induced drug infusion schedule.
# [5] = PK/TK single dose studies; format: in vivo; settings: rhesus monkey, plasma
# Description: Pharmacokinetic studies in rats and monkeys were used to estimate the plasma concentrations associated with doses at which AZD0328 improved cognitive performance in these species. For example, in rhesus monkeys, two studies were conducted to determine the pharmacokinetic profile of AZD0328 after administration of 0.048 and 1.7 mg per kg AZD0328. […] We thus estimated the peak plasma concentrations in monkeys that received AZD0328 at 0.00048-0.016 mg per kg to be 0.6-18 nM. Similar studies and calculations in rats, when extended to mice, led us to estimate plasma concentrations at 0.001-0.1 mg per kg body weight to be 0.29-100 nM in these species.
# as §1
# Mouse lymphoma test = experiment: Mouse lymphoma test; format: cell-based
# Description: The genotoxic potential of AZD0328 has been evaluated in the Ames test and in the Mouse lymphoma test. AZD0328 was not mutagenic in either of these tests.
compound,measurement,setting,value
"c1cnc2c(c1)C[C@@]1(CN3CCC1CC3)O2 [AZD0328, (R)-Spiro[1-azabicyclo[2.2.2]octane-3,2′(3′H)-furo[2,3-b]pyridine]]",Tmax,[1],18 to 60 min
same,Target organ pathology (kidney),rats [2],vacuolation of the tubular cells
same,"Body temperature, PR or QRS interval","dogs; any dose level, 7 or 1 day dosing",no effect
same,BP and/or HR,dogs; oral gavage,increased at all doses.
same,Emesis,dogs; single doses 17.3 and 34.6 mg/kg (mid and high dose groups),frequent vomiting; also recorded: severe emesis. BP and/or HR
same,"Active dose, [125I]-α-bungarotoxin binding ex vivo increased receptor number",[3],0.1 µg/kg
same,Hippocampal LTP,FFX rats,ineffective
same,Dose up to which nicotine-like stimulus properties were lacking,rats [4],properties at doses up to 5.4 mg/kg
same,Functional potency α7 versus 5-HT3A/B,5-HT3A/B receptors,equipotent
same,Pgp mediated digoxin transport,Pgp transporter,did not significantly inhibit
same,iv bolus dose after which one monkey died within minutes,rhesus monkeys; initial dose-finding study,receiving 34.8 mg/kg as iv bolus
same,Reinforcing effect,"rhesus monkeys; rhesus monkey, iv infusion 0.384, 1.15 and 3.84 mg/kg/infusion",did not display reinforcing properties; also recorded: No reinforcing effect seen at any
same,Self-administration level,"rhesus monkeys; rhesus monkey, not greater than saline",0.2-1.7 infusions per session
same,AUC,"[5]; male, im, 0.048 mg/kg, read-out: AUC (converted)",14.9 ng·h/mL and 0.0684 µM·h
same,AUC,"[5]; intramuscular, 0.016 mg/kg, rhesus monkeys, read-out: AUC at NOAEL for behavioral side effects",0.028 µM·h
same,Mutagenicity / genotoxicity,Mouse lymphoma test,not genotoxic; also recorded: not mutagenic
